# Reference: ChEMBL document CHEMBL1201862, “PubChem BioAssay data set” (2004)
#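 Briefly, cells in 96-well plates were exposed to five compound concentrations for 48 h, and endpoints were estimated by linear interpolation. GI50 = concentration required for 50% inhibition of growth.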 The source made the active and inactive calls. No stated cut-off is given here; in the data, active = GI50 up to about 1.1 µM and inactive = higher.
# Columns and labels:
# Assay in all cases: growth of human tumour cells (NCI), 48 h
# [1] = system: 786-0
# [2] = system: A498
# [3] = system: A549
# [4] = system: CCRF-CEM
# [5] = system: HL-60
# [6] = system: HOP-92
# [7] = system: IGROV-1
# [8] = system: MCF7
# [9] = system: MDA-MB-231
# [10] = system: MDA-MB-435
# [11] = system: NCI-H23
# [12] = system: NCI-H460
# [13] = system: NCI-H522
# [14] = system: NCI/ADR-RES
# [15] = system: PC-3
# [16] = system: RPMI-8226
# [17] = system: SK-MEL-2
# [18] = system: SNB-19
# [19] = system: U-251
# [20] = system: UO-31
Compound,GI50 [1],GI50 [2],GI50 [3],GI50 [4],GI50 [5],GI50 [6],GI50 [7],GI50 [8],GI50 [9],GI50 [10],GI50 [11],GI50 [12],GI50 [13],GI50 [14],GI50 [15],GI50 [16],GI50 [17],GI50 [18],GI50 [19],GI50 [20]
O=c1c(F)cn2c(=O)n1CCCCCCCn1c(=O)c(F)cn(c1=O)CCCCCCC2,40.7 µM (inactive),32 µM (inactive),> 100 µM (inactive),76 µM (inactive),49.5 µM (inactive),57.7 µM (inactive),> 100 µM (inactive),> 100 µM (inactive),34 µM (inactive),64.9 µM (inactive),> 100 µM (inactive),> 100 µM (inactive),> 100 µM (inactive),69 µM (inactive),> 100 µM (inactive),> 100 µM (inactive),> 100 µM (inactive),> 100 µM (inactive),> 100 µM (inactive),> 100 µM (inactive)
N#Cc1cc2c(n(C3OC(CO)C(O)C(O)C3O)c1=S)CCCCC2 (stereo not drawn),> 100 µM (inactive),> 100 µM (inactive),> 100 µM (inactive),> 100 µM (inactive),> 100 µM (inactive),> 100 µM (inactive),> 100 µM (inactive),> 100 µM (inactive),> 100 µM (inactive),> 100 µM (inactive),> 100 µM (inactive),> 100 µM (inactive),> 100 µM (inactive),> 100 µM (inactive),> 100 µM (inactive),> 100 µM (inactive),> 100 µM (inactive),> 100 µM (inactive),> 100 µM (inactive),> 100 µM (inactive)
c1ccc([I+]c2ccccc2)cc1,> 100 µM (inactive),> 100 µM (inactive),> 100 µM (inactive),> 100 µM (inactive),> 100 µM (inactive),70 µM (inactive),> 100 µM (inactive),> 100 µM (inactive),> 100 µM (inactive),> 100 µM (inactive),> 100 µM (inactive),> 100 µM (inactive),> 100 µM (inactive),> 100 µM (inactive),> 100 µM (inactive),> 100 µM (inactive),> 100 µM (inactive),> 100 µM (inactive),> 100 µM (inactive),> 100 µM (inactive)
COc1ccccc1NC(=S)N/N=C(/c1ccccc1)c1ccccn1,0.103 µM (active),1.38 µM (inactive),0.141 µM (active),0.0316 µM (active),< 0.0131 µM (active),0.522 µM (active),0.0225 µM (active),0.0228 µM (active),0.0214 µM (active),0.356 µM (active),< 0.013 µM (active),0.158 µM (active),0.499 µM (active),0.0853 µM (active),< 0.0142 µM (active),0.0299 µM (active),4.4 µM (inactive),2.6 µM (inactive),0.0635 µM (active),0.2 µM (active)
CCOc1cc2c(cc1OC(C)=O)C(=O)CC[C@H]1C3CC[C@H](OC(C)=O)[C@@]3(C)CC[C@H]21 (stereo partly drawn),> 100 µM (inactive),> 100 µM (inactive),> 100 µM (inactive),> 100 µM (inactive),> 100 µM (inactive),> 100 µM (inactive),–,> 100 µM (inactive),> 100 µM (inactive),> 100 µM (inactive),> 100 µM (inactive),> 100 µM (inactive),> 100 µM (inactive),> 100 µM (inactive),> 100 µM (inactive),> 100 µM (inactive),> 100 µM (inactive),> 100 µM (inactive),> 100 µM (inactive),> 100 µM (inactive)
C=C1C(=O)OC2CC(C)C3CC(O)OC(OCC)C3(C)CC12 (stereo not drawn),10.2 µM (inactive),28.1 µM (inactive),41.6 µM (inactive),6.46 µM (inactive),1.14 µM (inactive),16 µM (inactive),19.3 µM (inactive),13.3 µM (inactive),17.5 µM (inactive),18 µM (inactive),17.1 µM (inactive),18.6 µM (inactive),7.03 µM (inactive),16.7 µM (inactive),19.9 µM (inactive),11.4 µM (inactive),15.3 µM (inactive),26 µM (inactive),17.1 µM (inactive),22.3 µM (inactive)
Cc1ccc(OC2CC(n3cnc4c(=O)[nH]c(Br)nc43)OC2Oc2ccc(C)cc2)cc1 (stereo not drawn),26.3 µM (inactive),> 100 µM (inactive),22.7 µM (inactive),23.1 µM (inactive),30.3 µM (inactive),22.4 µM (inactive),24.4 µM (inactive),23.5 µM (inactive),23 µM (inactive),24 µM (inactive),26.9 µM (inactive),20.6 µM (inactive),21.2 µM (inactive),28.7 µM (inactive),22.6 µM (inactive),34.4 µM (inactive),26.8 µM (inactive),21.5 µM (inactive),29.1 µM (inactive),19.1 µM (inactive)
C[N+](C)([O-])CCCNc1c2ccccc2nc2cccc([N+](=O)[O-])c12,0.166 µM (active),0.164 µM (active),0.175 µM (active),0.249 µM (active),0.351 µM (active),0.31 µM (active),0.259 µM (active),0.113 µM (active),0.33 µM (active),0.226 µM (active),0.156 µM (active),0.142 µM (active),0.115 µM (active),8.2 µM (inactive),0.219 µM (active),0.313 µM (active),0.214 µM (active),0.409 µM (active),0.305 µM (active),1.41 µM (inactive)
O=c1[nH]c(C23CC4CC(CC(C4)C2)C3)cc2c1c(=O)oc1ccccc12,1.61 µM (inactive),2.26 µM (inactive),2.83 µM (inactive),12.5 µM (inactive),29.4 µM (inactive),1.04 µM (active),2.32 µM (inactive),6 µM (inactive),3.4 µM (inactive),13.4 µM (inactive),9.57 µM (inactive),2.62 µM (inactive),2.58 µM (inactive),3.96 µM (inactive),3.27 µM (inactive),3.08 µM (inactive),13.8 µM (inactive),4.98 µM (inactive),2.53 µM (inactive),1.61 µM (inactive)
CCOc1cc(C2CC(c3ccc(NS(=O)(=O)c4cc([N+](=O)[O-])ccc4C)cc3)=NN2C(=O)c2ccccc2)ccc1O (stereo not drawn),23.1 µM (inactive),10.2 µM (inactive),17.8 µM (inactive),20.7 µM (inactive),17.2 µM (inactive),14.8 µM (inactive),10.6 µM (inactive),17.3 µM (inactive),17.5 µM (inactive),28.1 µM (inactive),21.5 µM (inactive),–,14.8 µM (inactive),23.3 µM (inactive),17.5 µM (inactive),31.5 µM (inactive),13.7 µM (inactive),29.6 µM (inactive),18.7 µM (inactive),15.2 µM (inactive)
CCC(=O)c1cc(C(=O)C(=S)SC)cc(C(=O)C(=S)SC)c1,> 85.7 µM (inactive),> 100 µM (inactive),> 100 µM (inactive),3.05 µM (inactive),4.83 µM (inactive),> 59.7 µM (inactive),> 100 µM (inactive),> 72.1 µM (inactive),> 100 µM (inactive),> 100 µM (inactive),> 76.7 µM (inactive),> 100 µM (inactive),> 55.3 µM (inactive),> 100 µM (inactive),> 100 µM (inactive),99.3 µM (inactive),> 100 µM (inactive),> 100 µM (inactive),> 69.3 µM (inactive),48.4 µM (inactive)
CN(C)c1ccc(/C=C(\NC(=O)c2ccccc2)C2=NC(CCC(=O)O)C(=O)O2)cc1 (stereo not drawn),> 50 µM (inactive),> 50 µM (inactive),> 50 µM (inactive),> 43.9 µM (inactive),49.9 µM (inactive),> 50 µM (inactive),> 50 µM (inactive),> 50 µM (inactive),> 50 µM (inactive),> 50 µM (inactive),> 50 µM (inactive),> 50 µM (inactive),17.1 µM (inactive),49 µM (inactive),> 50 µM (inactive),35.9 µM (inactive),> 50 µM (inactive),33.2 µM (inactive),> 47.2 µM (inactive),> 50 µM (inactive)
C/C(=N\Nc1nc2cc(F)ccc2s1)c1ccccn1,0.0439 µM (active),12.1 µM (inactive),0.26 µM (active),< 0.01 µM (active),< 0.01 µM (active),0.0352 µM (active),0.0198 µM (active),0.0199 µM (active),0.0389 µM (active),0.303 µM (active),0.0352 µM (active),0.0412 µM (active),< 0.01 µM (active),0.0274 µM (active),0.0395 µM (active),0.136 µM (active),1.54 µM (inactive),0.391 µM (active),0.0402 µM (active),0.0192 µM (active)
CC(C)(C)OC(=O)CCCCCNC(=O)CCCCCNC(=O)CCC(CN(CC(=O)OCc1ccccc1)CC(=O)OCc1ccccc1)N(CC(=O)OCc1ccccc1)CC(=O)OCc1ccccc1 (stereo not drawn),> 100 µM (inactive),> 100 µM (inactive),> 100 µM (inactive),31.4 µM (inactive),61.1 µM (inactive),32.9 µM (inactive),> 100 µM (inactive),> 100 µM (inactive),> 100 µM (inactive),> 100 µM (inactive),68.1 µM (inactive),14.6 µM (inactive),> 100 µM (inactive),> 100 µM (inactive),> 100 µM (inactive),11.8 µM (inactive),> 100 µM (inactive),> 100 µM (inactive),> 100 µM (inactive),71.1 µM (inactive)
